From ChEMBL document CHEMBL4417636, “Small molecule inhibitors of pendrin ion exchange and pharmaceutical compositions” (2017)
The source made the active and inactive calls. The rule behind the calls is not given here.

How the values were obtained:
[1] = biological target: T1, Pendrin (Homo sapiens) (UniProt O43511); experiment: Inhibition of pendrin in IL13-stimulated human CFBE assessed as reduction in gluconate gradient-induced intracellular alkalization at 25 uM; assay type: cell-based
T1 sequence (whole entry): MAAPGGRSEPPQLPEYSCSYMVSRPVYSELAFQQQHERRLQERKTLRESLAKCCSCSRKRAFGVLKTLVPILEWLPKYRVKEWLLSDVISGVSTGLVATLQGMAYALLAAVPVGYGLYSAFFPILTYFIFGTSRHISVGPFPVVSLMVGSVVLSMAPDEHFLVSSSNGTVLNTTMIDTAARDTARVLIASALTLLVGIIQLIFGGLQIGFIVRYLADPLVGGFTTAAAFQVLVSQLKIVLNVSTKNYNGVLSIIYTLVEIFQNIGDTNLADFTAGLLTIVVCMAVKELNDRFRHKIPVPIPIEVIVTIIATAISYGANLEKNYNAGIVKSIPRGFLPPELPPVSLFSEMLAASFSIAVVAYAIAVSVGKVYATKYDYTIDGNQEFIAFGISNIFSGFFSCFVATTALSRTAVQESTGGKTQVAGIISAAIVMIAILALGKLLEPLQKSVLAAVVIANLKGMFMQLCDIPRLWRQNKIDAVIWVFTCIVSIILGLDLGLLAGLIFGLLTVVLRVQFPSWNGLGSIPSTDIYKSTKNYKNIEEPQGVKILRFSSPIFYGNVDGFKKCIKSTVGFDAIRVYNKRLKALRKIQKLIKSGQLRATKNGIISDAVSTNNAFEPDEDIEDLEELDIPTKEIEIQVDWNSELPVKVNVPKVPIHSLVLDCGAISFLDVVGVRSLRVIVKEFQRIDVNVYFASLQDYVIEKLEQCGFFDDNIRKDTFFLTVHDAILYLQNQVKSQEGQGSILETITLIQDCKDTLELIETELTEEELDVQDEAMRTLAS

[2] = organism: Homo sapiens; experiment: Inhibition of potassium channel in human bronchial epithelial cells assessed as effect on short-circuit current at 25 uM pre-incubated for 30 mins
[3] = organism: Homo sapiens; experiment: Effect on airway surface liquid depth in NHBE cells at 25 uM by rhodamine B-dextran fluorescence based confocal microscopy; assay type: functional, cell-based
[4] = organism: Homo sapiens; experiment: Effect on airway surface liquid depth in human CFBE at 25 uM by rhodamine B-dextran fluorescence based confocal microscopy; assay type: functional
[5] = organism: Homo sapiens; experiment: Effect on airway surface liquid pH in NHBE cells at 25 uM by pH-sensitive fluorophore BCECF based fluorescence based assay; assay type: functional, cell-based
[6] = biological target: T1, Pendrin (Homo sapiens); experiment: Inhibition of pendrin in IL13-stimulated human bronchial epithelial cells assessed as reduction in gluconate gradient-induced intracellular alkalization at 25 uM; assay type: cell-based
[7] = organism: Homo sapiens; experiment: Inhibition of CaCC in human bronchial epithelial cells assessed as effect on short-circuit current at 25 uM pre-incubated for 30 mins
[8] = organism: Homo sapiens; experiment: Effect on gluconate gradient-induced Cl/HC03- efflux in NHBE cells at 25 uM; assay type: functional, cell-based
[9] = biological target: T2, Pendrin (Homo sapiens, UniProt O43511); experiment: Inhibition of human pendrin expressed in FRT cells co-expressing EYFP-HIF assessed as reduction in pendrin-mediated C17F exchange incubated for 10 mins by pH-sensitive fluorescent probe BCECF-AM based fluorescence assay relative to control; assay type: cell-based
T2 sequence (O43511 whole entry): T1 sequence (whole entry)

[10] = biological target: T3, Pendrin (Mus musculus) (UniProt Q9R155); experiment: Inhibition of mouse pendrin expressed in FRT cells co-expressing YFP-HIF assessed as reduction in pendrin-mediated exchange of Cl(-) with SCN(-) by pH-sensitive fluorescent probe BCECF-AM based fluorescence assay relative to control; assay type: cell-based
T3 sequence (whole entry): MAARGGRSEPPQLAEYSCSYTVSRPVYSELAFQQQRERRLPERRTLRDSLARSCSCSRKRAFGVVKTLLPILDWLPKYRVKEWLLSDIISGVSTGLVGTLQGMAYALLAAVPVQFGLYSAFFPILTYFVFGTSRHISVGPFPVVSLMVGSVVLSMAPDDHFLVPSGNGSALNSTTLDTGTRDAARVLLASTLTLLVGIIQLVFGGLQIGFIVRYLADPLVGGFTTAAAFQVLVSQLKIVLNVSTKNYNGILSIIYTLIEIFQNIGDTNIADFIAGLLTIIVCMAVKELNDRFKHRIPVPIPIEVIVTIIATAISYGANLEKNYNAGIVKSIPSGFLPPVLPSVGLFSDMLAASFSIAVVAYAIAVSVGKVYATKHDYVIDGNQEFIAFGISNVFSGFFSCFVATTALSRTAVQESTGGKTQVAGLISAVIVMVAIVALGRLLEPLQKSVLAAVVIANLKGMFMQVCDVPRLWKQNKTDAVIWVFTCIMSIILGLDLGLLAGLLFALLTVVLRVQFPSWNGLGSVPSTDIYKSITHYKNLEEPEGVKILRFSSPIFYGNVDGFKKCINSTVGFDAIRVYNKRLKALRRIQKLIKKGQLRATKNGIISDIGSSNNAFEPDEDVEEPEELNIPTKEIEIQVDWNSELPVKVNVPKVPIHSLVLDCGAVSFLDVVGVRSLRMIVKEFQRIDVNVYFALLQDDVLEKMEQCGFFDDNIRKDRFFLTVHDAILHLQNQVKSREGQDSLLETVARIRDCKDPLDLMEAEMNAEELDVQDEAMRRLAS

[11] = system: Mus musculus; experiment: Potentiation of 5 to 50 mg/kg, ip furosemide-induced acute diuretic action in CD1 mouse assessed as increase in urine volume at 50 mg/kg, ip relative to control; assay type: functional, organism-based
[12] = biological target: T2, Pendrin; experiment: Inhibition of human pendrin expressed in FRT cells co-expressing EYFP-HIF assessed as reduction in pendrin-mediated C17NO3(-) exchange incubated for 10 mins by pH-sensitive fluorescent probe BCECF-AM based fluorescence assay relative to control; assay type: cell-based
[13] = biological target: T3, Pendrin (Mus musculus); experiment: Inhibition of mouse pendrin expressed in FRT cells co-expressing YFP-HIF assessed as reduction in pendrin-mediated exchange of Cl(-) with I(-) by pH-sensitive fluorescent probe BCECF-AM based fluorescence assay relative to control; assay type: cell-based
[14] = biological target: T2, Pendrin; experiment: Inhibition of human pendrin expressed in FRT cells co-expressing EYFP-HIF assessed as reduction in pendrin-mediated Cl(-)/r exchange incubated for 10 mins by pH-sensitive fluorescent probe BCECF-AM based fluorescence assay relative to control; assay type: cell-based

Structure (SMILES)	inhibition [1]	inhibition [2]	Activity [3]	Activity [4]	Activity [5]	inhibition [6]	inhibition [7]	Activity [8]	IC50 [9]	inhibition [10]	Activity [11]	IC50 [12]	inhibition [13]	IC50 [14]
Cn1nc(COc2cccc(F)c2)c2c1CCN(C(=O)Nc1ccc(Cl)cc1)C2	Active	inactive	inactive	inactive	inactive	Active	inactive	inactive						
Cc1n[nH]c(-c2cc(S(=O)(=O)NC3CCCc4ccccc43)c(C)s2)c1C (centres undefined)									9 µM	Dose-dependent effect	Active	5 µM	Dose-dependent effect	8 µM
